Consider 1 compound from publication PMC10381170, “1,3,4-Oxadiazole and 1,3,4-Thiadiazole Nortopsentin Derivatives against Pancreatic Ductal Adenocarcinoma: Synthesis, Cytotoxic Activity, and Inhibition of CDK1” (Marine Drugs, 2023).

The test system of one data set is Suit-2 cells. In words: SRB antiproliferative assay, Suit-2. The format is cell-based, human. On the procedure:
(§1) The cytotoxic activity of the nortopsentin derivatives 3b, 3e, 4c, 5b, and 6c on pancreatic cancer cells (BxPC-3, Panc-1, Suit-2, Capan-1, PaTu-T, primary PDAC-3 and resistant Panc-1-GR cells) was determined by the sulforhodamine B (SRB) chemosensitivity assay, as described previously. Cells were plated in 96-well flat-bottom plates at final concentrations ranging from 3000–5000 cells/well in 100 µL of medium. After a 24 h pre-incubation period, cells were treated with the compounds at nine screening concentrations (from 0.1 μM to 40 μM) in triplicate and incubated at 37 °C for 72 h. After the treatment, cells were fixed with 25 µL of cold 50% trichloroacetic acid (TCA) for each well and incubated at 4 °C for 1 h. Afterwards, plates were washed five times with demi-water and air-dried overnight. Then, the plates were stained with 50 µL of 0.4% SRB solution in 1% acetic acid for 15 min. The excess stain was rinsed off by placing the plates under running 1% acetic acid and allowed to dry at room temperature overnight. SRB staining was rinsed with 150 µL tris(hydroxymethyl)aminomethane solution pH = 8.8 (TRIS-base), and the optical density (OD) was read at 492 nm. Each assay was performed in triplicate and assays were repeated at least three times. The comparison of the average optical density of the growth in control wells with that in the sample wells allowed the estimation of the percentage of cell growth, using the following equation: % Cell Growth = (mean ODcompound − mean ODday zero plate)/(mean ODcells − mean ODday zero plate) × 100
(§2) The results obtained were adjusted by the day zero plate (wells containing cells growing for only 24 h) and normalized by the control cells (wells with untreated cells) to obtain the rate of viable cells.

In a further data set the test system is Capan-1 cells. In words: SRB antiproliferative assay, Capan-1. It counts as cell-based, human. On the procedure: as §1, §2
A general note: Sulforhodamine B stains cellular protein and so reports cell mass.

Data set [1] has as its system PDAC-3 cells. The data set can be described thus: SRB antiproliferative assay, primary culture PDAC-3. It counts as cell-based, human. The protocol:
as §1, §2

Data set [2] has as its system PDAC-3 cells. The data set can be described thus: Cell-cycle analysis by PI flow cytometry, PDAC-3. The format is cell-based, human. On the procedure:
Cell cycle perturbation was analyzed by flow cytometry. Optimized numbers of cells (5 × 10^5 cells/mL) were seeded in 6-well plates. […] After treatment, the cells were harvested by trypsinization (250 µL trypsin-EDTA/well), incubated until the cells detached, re-suspended using the same medium used for culture, collected in specific FACS (Fluorescence Activated Cell Sorting) tubes, and washed with 1.5 mL phosphate-buffered saline (PBS). The samples were then centrifuged to form a pellet (5 min at 1500 rpm). These pellets were fixed in 1 mL of ice-cold 70% ethanol, added drop by drop during vortex, and placed in the refrigerator at 4 °C. After overnight incubation, the cells were washed twice with PBS, centrifuged (5 min at 1500 rpm), re-suspended in […] of RNase ([…]) and incubated for 30 min at 37 °C. Finally, […] of propidium iodide solution (PI, […]) was added, and the cell distribution in the various phases of the cell cycle was analyzed in a FACS Calibur instrument. Data analysis was carried out with FACSdiva software (Becton Dickinson), while cell cycle distribution was determined using Modfit software (Verity-Software, Topsham, ME, USA).

Take `Cn1cc(-c2nnc(-c3cn(C)c4ncccc34)o2)c2ccccc21` [3b, 1-methyl-3-[5-(1-methyl-1H-indol-3-yl)-1,3,4-oxadiazol-2-yl]-7-azaindole]: the melting point (usually the temperature of the solid-liquid transition) came out at 239 °C. Also, the IC50 in the data set on Suit-2 cells (Homo sapiens, Suit-2, 72 h, mean ± SEM, read-out: Half-maximal inhibitory concentration (IC50)) was 1400 ± 740 nM. Besides, in the data set on Suit-2 cells (Suit-2, 10 μM, 72 h exposure), the Cell growth percentage is 18.34%. In addition, the Cell growth percentage in the data set on Capan-1 cells (Capan-1, 10 μM, 72 h exposure) was found to be 18.33%. Also, in the data set on Capan-1 cells (Homo sapiens, Capan-1, 72 h, mean ± SEM, read-out: Half-maximal inhibitory concentration (IC50)), the IC50 worked out at 2600 ± 620 nM. In the data set with PDAC-3 cells [1] (Homo sapiens, PDAC-3, 72 h, mean ± SEM, read-out: Half-maximal inhibitory concentration (IC50)), the IC50 was found to be 8100 ± 140 nM. Moreover, the Cell growth percentage in the data set on PDAC-3 cells [1] (PDAC-3, 10 μM, 72 h exposure) is 38.35%. Besides, the “percentage of cells in G2-M phase” value with PDAC-3 cells [2] (PDAC-3, 2 μM, 24 h (control 16%)) is 23%. In addition, the “percentage of cells in S phase” value in the data set on PDAC-3 cells [2] (PDAC-3, 2 μM, 24 h (control 25%)) is 23%. Moreover, the “percentage of cells in G0-G1 phase” value in the data set on PDAC-3 cells [2] (PDAC-3, 2 μM, 24 h (control 59%)) stood at 54%. Also, in the data set on PDAC-3 cells [2] (PDAC-3, 4-fold IC50, 24 h (control 16%)), the “percentage of cells in G2-M phase” value stood at 52%. Also, in the data set with PDAC-3 cells [2] (PDAC-3, 4-fold IC50, 24 h (control 25%)), the “percentage of cells in S phase” value is on record as 19%. Besides, in the data set on PDAC-3 cells [2] (PDAC-3, 4-fold IC50, 24 h (control 59%)), the “percentage of cells in G0-G1 phase” value is 29%.
